From ChEMBL document CHEMBL5385873, “Analogues of natural products yaequinolones as potential inflammatory inhibitors: Design, synthesis and biological evaluation” (Eur J Med Chem, 2023) come the findings set out here.

Each structure is given as a SMILES string. The source made the active and inactive calls. The rule behind the calls is not given here.

Common to all, as to format: functional, cell-based
Assay [1] concerns RAW264.7. Kind of assay: Cytotoxicity against mouse RAW264.7 cells assessed as reduction in cell viability at <50 uM incubated for 24 hrs by MTT assay. A general note: Tetrazolium dyes change colour on reduction, which living cells bring about.
The test system of assay [2] is RAW264.7. Kind of assay: Antiinflammatory activity in mouse RAW264.7 cells assessed as inhibition of LPS-induced NO production at 1 uM incubated for 24 hrs.
Assay [3] relates to RAW264.7. The experiment in a line: Antiinflammatory activity in mouse RAW264.7 cells assessed as inhibition of LPS-induced NO production at 0.05 uM incubated for 24 hrs.
The subject of assay [4] is RAW264.7. Kind of assay: Antiinflammatory activity in mouse RAW264.7 cells assessed as inhibition of LPS-induced NO production at 0.1 uM incubated for 24 hrs.

For `CO[C@@H]1C(=O)Nc2ccc3c(c2[C@@]1(O)c1ccccc1)O[C@@](C)(CCC=C(C)C)C=C3`, the result in the assay with RAW264.7 [1] was inactive.
Same read-out and setting: the same measure for `CO[C@H]1C(=O)Nc2ccc3c(c2[C@]1(O)c1ccccc1)O[C@@](C)(CCC=C(C)C)C=C3`: “inactive”.
Same read-out and setting: the same measure for `COc1ccc([C@@]2(O)c3c(ccc4c3O[C@@](C)(CCC=C(C)C)C=C4)NC(=O)[C@@H]2OC)cc1`: “inactive”; for `COc1ccc([C@@]2(O)c3c(ccc4c3O[C@](C)(CCC=C(C)C)C=C4)NC(=O)[C@@H]2OC)cc1`: “inactive”.
For the compound `COc1ccc([C@]2(O)c3c(ccc4c3O[C@@](C)(CCC=C(C)C)C=C4)NC(=O)[C@H]2OC)cc1`, the result in the assay on RAW264.7 [1] was inactive.
On to `COc1ccc([C@]2(O)c3c(ccc4c3O[C@](C)(CCC=C(C)C)C=C4)NC(=O)[C@H]2OC)cc1`, for which the result in the assay with RAW264.7 [2] was Active. The result in the assay on RAW264.7 [1] and with RAW264.7 [3] was inactive.
Take `CO[C@@H]1C(=O)Nc2ccc3c(c2[C@@]1(O)c1ccc(Br)cc1)O[C@](C)(CCC=C(C)C)C=C3` (racemic): the result with RAW264.7 [2] was Active. Besides, the outcome with RAW264.7 [1] and with RAW264.7 [3] was inactive.
For `CO[C@@H]1C(=O)Nc2ccc3c(c2[C@@]1(O)c1ccc(C(F)(F)F)cc1)O[C@](C)(CCC=C(C)C)C=C3` (racemic), the result in the assay with RAW264.7 [2] was Active. The result in the assay on RAW264.7 [1] and with RAW264.7 [3] was inactive.
`CO[C@@H]1C(=O)Nc2ccc3c(c2[C@@]1(O)c1ccc(C)cc1)O[C@@](C)(CCC=C(C)C)C=C3` (racemic): the outcome in the assay with RAW264.7 [1] was inactive.
Regarding `CO[C@@H]1C(=O)Nc2ccc3c(c2[C@@]1(O)c1ccc(C)cc1)O[C@](C)(CCC=C(C)C)C=C3` (racemic), the result in the assay on RAW264.7 [1] was inactive.
On to `CO[C@@H]1C(=O)Nc2ccc3c(c2[C@@]1(O)c1ccc(Cl)cc1)O[C@@](C)(CCC=C(C)C)C=C3` (racemic), for which, in the assay on RAW264.7 [1], the outcome was inactive.
For the compound `CO[C@@H]1C(=O)Nc2ccc3c(c2[C@@]1(O)c1ccc(Cl)cc1)O[C@](C)(CCC=C(C)C)C=C3` (racemic), the outcome with RAW264.7 [1] was inactive.
For the compound `CO[C@@H]1C(=O)Nc2ccc3c(c2[C@@]1(O)c1ccc(F)cc1)O[C@@](C)(CCC=C(C)C)C=C3` (racemic), the outcome with RAW264.7 [1] was inactive.
The same measure, in the same setting: the same measure for `CO[C@@H]1C(=O)Nc2ccc3c(c2[C@@]1(O)c1ccc(F)cc1)O[C@](C)(CCC=C(C)C)C=C3` (racemic): “inactive”.
Turning to `CO[C@@H]1C(=O)Nc2ccc3c(c2[C@@]1(O)c1cccc(Br)c1)O[C@@](C)(CCC=C(C)C)C=C3` (racemic), the outcome in the assay with RAW264.7 [2] and with RAW264.7 [4] was Active. Also, the outcome with RAW264.7 [1] and in the assay with RAW264.7 [3] was inactive.
As for `COc1ccc([C@]2(O)c3c(ccc4c3O[C@@](C)(CCC=C(C)C)C=C4)N(C)C(=O)[C@H]2OC)cc1` (racemic), the outcome with RAW264.7 [2] was Active. Also, the result with RAW264.7 [1] and in the assay on RAW264.7 [3] was inactive.
In the case of `COc1ccc([C@]2(O)c3c(ccc4c3O[C@@](C)(CCC=C(C)C)C=C4)N(Cc3ccc(Cl)cc3)C(=O)[C@H]2OC)cc1` (racemic), the result with RAW264.7 [2] and with RAW264.7 [4] was Active. Further, the outcome in the assay with RAW264.7 [1] and with RAW264.7 [3] was inactive.
For the compound `COc1ccc([C@]2(O)c3c(ccc4c3O[C@@](C)(CCC=C(C)C)C=C4)N(Cc3cccc(Br)c3)C(=O)[C@H]2OC)cc1` (racemic), the result with RAW264.7 [2] and in the assay on RAW264.7 [4] was Active. The result with RAW264.7 [1] and in the assay on RAW264.7 [3] was inactive.
Turning to `COc1ccc([C@]2(O)c3c(ccc4c3O[C@@](C)(CCC=C(C)C)C=C4)N(Cc3cccc(C(F)(F)F)c3)C(=O)[C@H]2OC)cc1` (racemic), the result with RAW264.7 [1] was inactive.
`COc1ccc([C@]2(O)c3c(ccc4c3O[C@@](C)(CCC=C(C)C)C=C4)N(Cc3cccc(C)c3)C(=O)[C@H]2OC)cc1` (racemic): the result in the assay on RAW264.7 [1] was inactive.
Turning to `COc1ccc([C@]2(O)c3c(ccc4c3O[C@@](C)(CCC=C(C)C)C=C4)N(Cc3cccc(C)n3)C(=O)[C@H]2OC)cc1` (racemic), the result with RAW264.7 [2] and with RAW264.7 [4] was Active. Also, the result with RAW264.7 [1] and with RAW264.7 [3] was inactive.
On to `COc1ccc([C@]2(O)c3c(ccc4c3O[C@@](C)(CCC=C(C)C)C=C4)N(Cc3cccc(F)c3)C(=O)[C@H]2OC)cc1` (racemic), for which, in the assay with RAW264.7 [2], the result was Active. Moreover, the result in the assay on RAW264.7 [1] and in the assay on RAW264.7 [3] was inactive.
For the compound `COc1ccc([C@]2(O)c3c(ccc4c3O[C@@](C)(CCC=C(C)C)C=C4)N(Cc3ccccc3Cl)C(=O)[C@H]2OC)cc1` (racemic), the result in the assay on RAW264.7 [2] was Active. In addition, the outcome with RAW264.7 [1] and with RAW264.7 [3] was inactive.
Regarding `COc1ccc([C@]2(O)c3c(ccc4c3O[C@](C)(CCC=C(C)C)C=C4)N(C)C(=O)[C@H]2OC)cc1` (racemic), the result in the assay with RAW264.7 [2] was Active. Also, the outcome in the assay with RAW264.7 [1] and with RAW264.7 [3] was inactive.
As for `COc1ccc([C@]2(O)c3c(ccc4c3O[C@](C)(CCC=C(C)C)C=C4)N(Cc3ccc(Cl)cc3)C(=O)[C@H]2OC)cc1` (racemic), in the assay on RAW264.7 [2], the outcome was Active. Besides, the outcome with RAW264.7 [1] and with RAW264.7 [3] was inactive.
Consider `COc1ccc([C@]2(O)c3c(ccc4c3O[C@](C)(CCC=C(C)C)C=C4)N(Cc3cccc(C(F)(F)F)c3)C(=O)[C@H]2OC)cc1` (racemic), for which the result in the assay on RAW264.7 [2] and in the assay with RAW264.7 [4] was Active. For the same compound, the outcome with RAW264.7 [1] and in the assay on RAW264.7 [3] was inactive.
For `COc1ccc([C@]2(O)c3c(ccc4c3O[C@](C)(CCC=C(C)C)C=C4)N(Cc3cccc(C)c3)C(=O)[C@H]2OC)cc1` (racemic), the outcome in the assay on RAW264.7 [1] was inactive.
On the same count and under the same terms, to `COc1ccc([C@]2(O)c3c(ccc4c3O[C@](C)(CCC=C(C)C)C=C4)N(Cc3cccc(C)n3)C(=O)[C@H]2OC)cc1` (racemic) belongs “inactive”.
In the case of `COc1ccc([C@]2(O)c3c(ccc4c3O[C@](C)(CCC=C(C)C)C=C4)N(Cc3cccc(F)c3)C(=O)[C@H]2OC)cc1` (racemic), the result in the assay with RAW264.7 [2] and in the assay on RAW264.7 [4] was Active. Besides, the outcome in the assay with RAW264.7 [1] and with RAW264.7 [3] was inactive.
For `COc1ccc([C@]2(O)c3c(ccc4c3O[C@](C)(CCC=C(C)C)C=C4)N(Cc3ccccc3Cl)C(=O)[C@H]2OC)cc1` (racemic), the result with RAW264.7 [1] was inactive.
With `COc1cccc([C@]2(O)c3c(ccc4c3O[C@@](C)(CCC=C(C)C)C=C4)NC(=O)[C@H]2OC)c1` (racemic), the result in the assay with RAW264.7 [2] was Active. Besides, the outcome in the assay on RAW264.7 [1] and in the assay on RAW264.7 [3] was inactive.
Regarding `COc1cccc([C@]2(O)c3c(ccc4c3O[C@](C)(CCC=C(C)C)C=C4)NC(=O)[C@H]2OC)c1` (racemic), the outcome in the assay on RAW264.7 [2] was Active. The result in the assay with RAW264.7 [1] and with RAW264.7 [3] was inactive.
